Starred links: 1 amine or outer side, 2 acyl side, 3 side chain; linkers in the order of their positions; H or OH if unused. Non-standard residues stand in square brackets, D forms with d. Residues, ends and D or L forms follow the SMILES beside them. Groups on a side chain read outwards from the residue. *: point of attachment. C18 diacid = O=C(O)CCCCCCCCCCCCCCCCC(=O)*; γGlu = O=C(O)[C@H](CCC(=O)[*:2])N[*:1]; Ac4c = NC1(C(=O)O)CCC1; AEEA = NCCOCCOCC(=O)O; Aib = CC(C)(N)C(=O)O
Biological target: T1, human glucagon receptor (Homo sapiens, UniProt P47871)
T1 construct: expressed in transfected cells; host or cells: membranes of BHK cells, clone BHK hGCGR A3*25
Assay: Assay (I)(b) glucagon receptor activation, CRE luciferase reporter gene assay in BHK cells
Assay type: cell-based
Conditions: without presence of serum albumin; read-out: GlucagonR EC50 (pM), [Assay (I)(b)]
Procedure: The purpose of this example was to test the activity or potency, of the glucagon derivatives of the invention, in vitro. The in vitro potency is the measure of human GLP-1 receptor (GLP-1R) or glucagon receptor (glucagonR) activation, respectively, in a whole cell assay. In vitro potency was determined by measuring the response of human GLP-1 or glucagon receptor, respectively, in a reporter gene assay. The assay was performed in a stably transfected BHK cell line that expresses either the human GLP-1 receptor or the human glucagon receptor and contains the DNA for the cAMP response element (CRE) coupled to a promoter and the gene for firefly luciferase (CRE luciferase). […] When assay incubation was completed, the luciferase substrate (luciferin) was added and the enzyme converted luciferin to oxyluciferin and produces bioluminescence. The luminescence was measured as the readout for the assay. The cells used in this assay (clone pLJ6′-4-25) were BHK cells with BHK570 as a parent cell line expressing the CRE luciferase gene (clone BHK/KZ10-20-48) and were established by further transfection with the human glucagon receptor (clone pLJ6′ in pHZ-1 vector). The cells were cultured at 5% CO2 in DMEM medium with 10% FBS, 1×GlutaMAX, 1 mg/ml G418, 240 nM MTX (methotrexate) and 1% pen/strep (penicillin/streptomycin). They were aliquoted and stored in liquid nitrogen. Before each assay, an aliquot was taken up and washed three times in PBS before being suspended at the desired concentration in assay medium. For 96-well plates the suspension was made to give a final concentration of 5×10EE3 cells/well. The following chemicals were used in the assay: Pluronic F-68 (10%) (Gibco 2404), ovalbumin (Sigma A5503), DMEM w/o phenol red (Gibco 11880-028), 1 M Hepes (Gibco 15630), Glutamax 100× (Gibco 35050) and steadylite plus (PerkinElmer 6016757). Assay Medium consisted of DMEM w/o phenol red, 10 mM Hepes, 1× GlutaMAX, 2% Ovalbumin and 0.2% Pluronic F-68. Cell stocks were thawed in a 37° C. water bath. Cells were washed three times in PBS. The cells were counted and adjusted to 5×10EE3 cells/50 μl (1×10EE5 cells/ml) in Assay Medium. A 50 μl aliquot of cells was transferred to each well in the assay plate. Stocks of the test compounds and reference compounds were diluted to a concentration of […] in Assay Medium. Compounds were diluted 10-fold to give the following concentrations: 2×10EE-6 M, 2×10EE-7 M, 2×10EE-8 M; 2×10EE-9 M, 2×10EE-10 M, 2×10EE-11 M, 2×10EE-12 M and 2×10EE-13 M. For each compound a blank assay medium control was also included. A 50 μl aliquot of compound or blank was transferred from the dilution plate to the assay plate. Compounds were tested at the following final concentrations: 1×10EE-6 M, 1×10EE-7 M, 1×10EE-8 M; 1×10EE-9 M, 1×10EE-10 M, 1×10EE-11 M and 1×10EE-12 M and 1×10EE-13 M. The assay plate was incubated for 3 h in a 5% CO2 incubator at 37° C. The assay plate was removed from the incubator and allowed to stand at room temperature for 15 min. A 100 μl aliquot of steadylite plus reagent was added to each well of the assay plate (reagent is light sensitive). Each assay plate was covered with aluminum foil to protect it from light and shaken for 30 min at room temperature. Each assay plate was read in a Perkin Elmer TopCount NXT instrument. The data from the TopCount instrument was transferred to GraphPad Prism software. The software performed a non-linear regression (log(agonist) vs response-Variable slope (four parameter)). EC50 values were calculated by the software and reported in pM.

T1 sequence (P47871 26-477): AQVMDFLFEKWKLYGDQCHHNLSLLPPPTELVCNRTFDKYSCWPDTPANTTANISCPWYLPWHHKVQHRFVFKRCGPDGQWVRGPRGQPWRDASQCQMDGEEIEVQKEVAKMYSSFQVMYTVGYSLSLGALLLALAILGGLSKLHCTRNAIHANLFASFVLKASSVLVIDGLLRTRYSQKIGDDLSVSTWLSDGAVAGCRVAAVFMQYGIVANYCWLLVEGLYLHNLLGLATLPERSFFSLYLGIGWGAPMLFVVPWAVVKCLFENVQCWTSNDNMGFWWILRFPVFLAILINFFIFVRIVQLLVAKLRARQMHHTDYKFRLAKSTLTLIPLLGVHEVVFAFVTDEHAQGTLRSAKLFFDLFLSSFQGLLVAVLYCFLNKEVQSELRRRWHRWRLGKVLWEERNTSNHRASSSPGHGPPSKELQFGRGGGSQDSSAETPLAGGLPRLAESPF

Question: For `CC[C@H](C)[C@H](NC(=O)[C@H](CC(C)C)NC(=O)[C@H](Cc1c[nH]c2ccccc12)NC(=O)[C@H](CCCCNC(=O)COCCOCCNC(=O)COCCOCCNC(=O)CC[C@H](NC(=O)CC[C@H](NC(=O)CC[C@H](NC(=O)CCCCCCCCCCCCCCCCC(=O)O)C(=O)O)C(=O)O)C(=O)O)NC(=O)[C@@H](NC(=O)[C@H](Cc1ccccc1)NC(=O)[C@H](CCC(=O)O)NC(=O)[C@H](CCCNC(=N)N)NC(=O)[C@H](C)NC(=O)[C@H](CCCNC(=N)N)NC(=O)[C@H](CCCNC(=N)N)NC(=O)[C@H](C)NC(=O)[C@H](CC(=O)O)NC(=O)[C@H](CC(C)C)NC(=O)[C@H](Cc1ccc(O)cc1)NC(=O)[C@H](CCCCN)NC(=O)[C@H](CO)NC(=O)[C@H](Cc1ccc(O)cc1)NC(=O)[C@H](CC(=O)O)NC(=O)[C@H](CO)NC(=O)[C@@H](NC(=O)[C@H](Cc1ccccc1)NC(=O)[C@@H](NC(=O)CNC(=O)[C@H](CCC(N)=O)NC(=O)C(C)(C)NC(=O)[C@@H](N)Cc1c[nH]cn1)[C@@H](C)O)[C@@H](C)O)C(C)C)C(=O)N[C@@H](CO)C(=O)N[C@H](C(N)=O)[C@@H](C)O` [Chem. 4, N^ε24-[2-[2-[2-[[2-[2-[2-[[(4S)-4-carboxy-4-[[(4S)-4-carboxy-4-[[(4S)-4-carboxy-4-(17-carboxyheptadecanoylamino)butanoyl]amino]butanoyl]amino]butanoyl]amino]ethoxy]ethoxy]acetyl]amino]ethoxy]ethoxy]acetyl]-[Aib2,Ala16,Arg20,Glu21,Lys24,Ile27,Ser28]-Glucagon amide] (H-H[Aib]QGTFTSDYSKYLDARRAREFVK([AEEA-AEEA-γGlu-γGlu-γGlu-C18 diacid])WLIST-NH2; N-terminus assumed), which EC50 is on record?
Answer: 12 pM

Question: `CC[C@H](C)[C@H](NC(=O)[C@H](CC(C)C)NC(=O)[C@H](Cc1c[nH]c2ccccc12)NC(=O)[C@H](CCC(N)=O)NC(=O)[C@@H](NC(=O)[C@H](Cc1ccccc1)NC(=O)[C@H](CC(=O)O)NC(=O)[C@H](CCC(N)=O)NC(=O)[C@H](C)NC(=O)[C@H](CCCNC(=N)N)NC(=O)[C@H](CCCNC(=N)N)NC(=O)[C@H](C)NC(=O)[C@H](CC(=O)O)NC(=O)[C@H](CC(C)C)NC(=O)[C@H](Cc1ccc(O)cc1)NC(=O)[C@H](CCCCN)NC(=O)[C@H](CO)NC(=O)[C@H](CC(C)C)NC(=O)[C@H](CC(=O)O)NC(=O)[C@H](CO)NC(=O)[C@@H](NC(=O)[C@H](Cc1ccccc1)NC(=O)[C@@H](NC(=O)CNC(=O)[C@H](CCC(N)=O)NC(=O)C(C)(C)NC(=O)[C@@H](N)Cc1c[nH]cn1)[C@@H](C)O)[C@@H](C)O)C(C)C)C(=O)N[C@@H](CCCCNC(=O)COCCOCCNC(=O)COCCOCCNC(=O)CC[C@H](NC(=O)CC[C@H](NC(=O)CC[C@H](NC(=O)CCCCCCCCCCCCCCCCC(=O)O)C(=O)O)C(=O)O)C(=O)O)C(=O)N[C@H](C(N)=O)[C@@H](C)O` [Chem. 7, N^ε28-[2-[2-[2-[[2-[2-[2-[[(4S)-4-carboxy-4-[[(4S)-4-carboxy-4-[[(4S)-4-carboxy-4-(17-carboxyheptadecanoylamino)butanoyl]amino]butanoyl]amino]butanoyl]amino]ethoxy]ethoxy]acetyl]amino]ethoxy]ethoxy]acetyl]-[Aib2,Leu10,Ala16,Ile27,Lys28]-Glucagon amide] (H-H[Aib]QGTFTSDLSKYLDARRAQDFVQWLIK([AEEA-AEEA-γGlu-γGlu-γGlu-C18 diacid])T-NH2; N-terminus assumed) was tested. Which EC50 did it give?
Answer: 32 pM

Question: Which EC50 does the source give for `CC[C@H](C)[C@H](NC(=O)[C@H](CC(C)C)NC(=O)[C@H](Cc1c[nH]c2ccccc12)NC(=O)[C@H](CCC(N)=O)NC(=O)[C@@H](NC(=O)[C@H](Cc1ccccc1)NC(=O)[C@H](CCC(=O)O)NC(=O)[C@H](CCCNC(=N)N)NC(=O)[C@H](C)NC(=O)[C@H](CCCNC(=N)N)NC(=O)[C@H](CCCNC(=N)N)NC(=O)[C@H](CO)NC(=O)[C@H](CCC(=O)O)NC(=O)[C@H](CC(C)C)NC(=O)[C@H](Cc1ccc(O)cc1)NC(=O)[C@H](CCCCN)NC(=O)[C@H](CO)NC(=O)[C@H](CC(C)C)NC(=O)[C@H](CC(=O)O)NC(=O)[C@H](CO)NC(=O)[C@@H](NC(=O)[C@H](Cc1ccccc1)NC(=O)[C@@H](NC(=O)CNC(=O)[C@H](CCC(N)=O)NC(=O)C1(NC(=O)[C@@H](N)Cc2c[nH]cn2)CCC1)[C@@H](C)O)[C@@H](C)O)C(C)C)C(=O)N[C@@H](CCCCNC(=O)COCCOCCNC(=O)COCCOCCNC(=O)CC[C@H](NC(=O)CC[C@H](NC(=O)CCCCCCCCCCCCCCCCC(=O)O)C(=O)O)C(=O)O)C(=O)N[C@H](C(N)=O)[C@@H](C)O` [Chem. 18, N^ε28-[2-[2-[2-[[2-[2-[2-[[(4S)-4-carboxy-4-[[(4S)-4-carboxy-4-(17-carboxyheptadecanoylamino)butanoyl]amino]butanoyl]amino]ethoxy]ethoxy]acetyl]amino]ethoxy]ethoxy]acetyl]-[Acb2,Leu10,Glu15,Arg20,Glu21,Ile27,Lys28]-Glucagon amide] (H-H[Ac4c]QGTFTSDLSKYLESRRAREFVQWLIK([AEEA-AEEA-γGlu-γGlu-C18 diacid])T-NH2) here?
Answer: 32 pM

Question: `CC[C@H](C)[C@H](NC(=O)[C@H](CC(C)C)NC(=O)[C@H](Cc1c[nH]c2ccccc12)NC(=O)[C@H](CCC(N)=O)NC(=O)[C@@H](NC(=O)[C@H](Cc1ccccc1)NC(=O)[C@H](CC(=O)O)NC(=O)[C@H](CCCNC(=N)N)NC(=O)[C@H](C)NC(=O)[C@H](CCCNC(=N)N)NC(=O)[C@H](CCCNC(=N)N)NC(=O)[C@H](C)NC(=O)[C@H](CC(=O)O)NC(=O)[C@H](CC(C)C)NC(=O)[C@H](Cc1ccc(O)cc1)NC(=O)[C@H](CCCCN)NC(=O)[C@H](CO)NC(=O)[C@H](CC(C)C)NC(=O)[C@H](CC(=O)O)NC(=O)[C@H](CO)NC(=O)[C@@H](NC(=O)[C@H](Cc1ccccc1)NC(=O)[C@@H](NC(=O)CNC(=O)[C@H](CCC(N)=O)NC(=O)C(C)(C)NC(=O)[C@@H](N)Cc1c[nH]cn1)[C@@H](C)O)[C@@H](C)O)C(C)C)C(=O)N[C@@H](CO)C(=O)N[C@@H](CCCCNC(=O)CC[C@H](NC(=O)CC[C@H](NC(=O)COCCOCCNC(=O)COCCOCCNC(=O)CC[C@H](NC(=O)CCCCCCCCCCCCCCCCC(=O)O)C(=O)O)C(=O)O)C(=O)O)C(N)=O` [Chem. 27, N^ε29-[(4S)-4-carboxy-4-[[(4S)-4-carboxy-4-[[2-[2-[2-[[2-[2-[2-[[(4S)-4-carboxy-4-(17-carboxyheptadecanoylamino)butanoyl]amino]ethoxy]ethoxy]acetyl]amino]ethoxy]ethoxy]acetyl]amino]butanoyl]amino]butanoyl]-[Aib2,Leu10,Ala16,Arg20,Ile27,Ser28,Lys29]-Glucagon amide] (H-H[Aib]QGTFTSDLSKYLDARRARDFVQWLISK([γGlu-γGlu-AEEA-AEEA-γGlu-C18 diacid])-NH2; N-terminus assumed) was tested. Which EC50 did it give?
Answer: 66 pM
